Laboratory results published in patent US8916575B2, “Quinazoline derivatives for the treatment of viral infections and further diseases” (Janssen R&D Ireland, priority 2011, dated 2014).
Marks after values point to notes of the source that are not given here.

Tests used:
human TLR7 = biological target: T1, human TLR7 (Homo sapiens, UniProt Q9NYK1); assay: TLR7 wild type NFκB-luc cellular reporter assay; type: cell-based; set-up: unit not given here; conditions: for TLR7-wt (LEC): second part of table
T1 construct: expressed in transfected cells; host or cells: HEK293
T1 sequence (Q9NYK1 27-1049): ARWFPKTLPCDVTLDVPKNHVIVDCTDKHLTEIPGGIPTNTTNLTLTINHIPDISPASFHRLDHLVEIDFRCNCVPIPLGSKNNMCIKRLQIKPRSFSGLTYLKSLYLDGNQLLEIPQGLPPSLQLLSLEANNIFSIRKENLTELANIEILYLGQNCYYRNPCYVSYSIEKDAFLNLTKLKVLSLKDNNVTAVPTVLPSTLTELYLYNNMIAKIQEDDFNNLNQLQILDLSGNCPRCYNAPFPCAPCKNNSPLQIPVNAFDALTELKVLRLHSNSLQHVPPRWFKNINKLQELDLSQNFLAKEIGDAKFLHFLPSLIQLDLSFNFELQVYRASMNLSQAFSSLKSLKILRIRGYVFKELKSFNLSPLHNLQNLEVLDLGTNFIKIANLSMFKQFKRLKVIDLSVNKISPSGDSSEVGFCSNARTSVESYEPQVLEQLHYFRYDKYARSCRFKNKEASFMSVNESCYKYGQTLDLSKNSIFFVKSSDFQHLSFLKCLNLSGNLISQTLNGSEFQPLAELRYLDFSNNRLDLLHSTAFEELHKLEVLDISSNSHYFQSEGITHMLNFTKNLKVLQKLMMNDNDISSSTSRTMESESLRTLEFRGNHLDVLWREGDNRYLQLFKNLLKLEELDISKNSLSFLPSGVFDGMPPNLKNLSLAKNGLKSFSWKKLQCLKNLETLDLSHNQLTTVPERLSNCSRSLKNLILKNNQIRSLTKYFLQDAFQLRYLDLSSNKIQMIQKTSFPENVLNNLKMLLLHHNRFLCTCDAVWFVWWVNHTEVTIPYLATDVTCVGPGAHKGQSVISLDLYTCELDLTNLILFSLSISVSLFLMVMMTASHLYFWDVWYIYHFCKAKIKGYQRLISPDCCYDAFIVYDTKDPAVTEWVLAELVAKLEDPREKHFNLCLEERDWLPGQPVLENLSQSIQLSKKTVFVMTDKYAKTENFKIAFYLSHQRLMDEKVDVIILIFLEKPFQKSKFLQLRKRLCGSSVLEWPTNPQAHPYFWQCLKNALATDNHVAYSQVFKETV
Experimental: (§1) The ability of compounds to activate human TLR7 and/or TLR8 was assessed in a cellular reporter assay using HEK293 cells transiently transfected with a TLR7 or TLR8 expression vector and NFκB-luc reporter construct. In one instance the TLR expression construct expresses the respective wild type sequence or a mutant sequence comprising a deletion in the second leucine-rich repeat of the TLR.
Briefly, HEK293 cells were grown in culture medium (DMEM supplemented with 10% FCS and 2 mM Glutamine). For transfection of cells in 10 cm dishes, cells were detached with Trypsin-EDTA, transfected with a mix of CMV-TLR7 or TLR8 plasmid (750 ng), NFκB-luc plasmid (375 ng) and a transfection reagent and incubated 24 hours at 37° C. in a humidified 5% CO2 atmosphere. Transfected cells were then detached with Trypsin-EDTA, washed in PBS and resuspended in medium to a density of 1.67×10^5 cells/mL. Thirty microliters of cells were then dispensed into each well in 384-well plates, where 10 μL of compound in 4% DMSO was already present. […] Dose response curves were generated from measurements performed in quadruplicates. Lowest effective concentrations (LEC) values, defined as the concentration that induces an effect which is at least two fold above the standard deviation of the assay, were determined for each compound.

human TLR8 = biological target: T2, human TLR8 (Homo sapiens, UniProt Q9NR97); assay: TLR8 wild type NFκB-luc cellular reporter assay; type: cell-based; set-up: unit not given here; conditions: HEK293 NFκB-luc reporter, 6 hours incubation; for TLR8-wt (LEC): second part of table
T2 construct: expressed in transfected cells; host or cells: HEK293
T2 sequence (Q9NR97 27-1041): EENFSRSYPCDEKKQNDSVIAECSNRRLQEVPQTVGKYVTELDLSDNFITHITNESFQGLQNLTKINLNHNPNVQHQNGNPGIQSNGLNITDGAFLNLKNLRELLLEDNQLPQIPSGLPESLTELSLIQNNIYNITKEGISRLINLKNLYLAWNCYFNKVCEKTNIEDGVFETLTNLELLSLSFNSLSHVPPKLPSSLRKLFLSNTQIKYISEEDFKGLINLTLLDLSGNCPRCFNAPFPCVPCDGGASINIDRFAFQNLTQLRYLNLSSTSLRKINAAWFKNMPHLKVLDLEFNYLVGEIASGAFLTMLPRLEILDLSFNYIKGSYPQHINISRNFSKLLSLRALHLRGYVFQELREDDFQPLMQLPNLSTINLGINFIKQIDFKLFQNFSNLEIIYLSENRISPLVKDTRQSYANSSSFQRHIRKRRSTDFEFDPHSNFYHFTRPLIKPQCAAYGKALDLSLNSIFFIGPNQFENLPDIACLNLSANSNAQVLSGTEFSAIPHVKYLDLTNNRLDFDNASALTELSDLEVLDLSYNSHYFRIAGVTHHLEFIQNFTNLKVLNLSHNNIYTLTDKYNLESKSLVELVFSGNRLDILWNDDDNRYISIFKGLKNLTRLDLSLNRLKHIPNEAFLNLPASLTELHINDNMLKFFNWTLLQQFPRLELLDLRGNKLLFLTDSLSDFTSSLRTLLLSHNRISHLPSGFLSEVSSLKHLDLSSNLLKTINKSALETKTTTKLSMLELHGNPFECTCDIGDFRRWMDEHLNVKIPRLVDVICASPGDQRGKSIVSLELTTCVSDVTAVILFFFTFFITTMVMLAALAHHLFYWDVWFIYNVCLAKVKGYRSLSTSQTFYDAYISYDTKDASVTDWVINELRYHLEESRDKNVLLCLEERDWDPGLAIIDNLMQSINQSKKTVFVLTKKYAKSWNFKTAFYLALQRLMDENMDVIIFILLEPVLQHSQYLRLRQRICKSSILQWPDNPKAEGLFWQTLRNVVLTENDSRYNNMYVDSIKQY
Experimental: as §1
Briefly, HEK293 cells were grown in culture medium (DMEM supplemented with 10% FCS and 2 mM Glutamine). For transfection of cells in 10 cm dishes, cells were detached with Trypsin-EDTA, transfected with a mix of CMV-TLR7 or TLR8 plasmid (750 ng), NFκB-luc plasmid (375 ng) and a transfection reagent and incubated 24 hours at 37° C. in a humidified 5% CO2 atmosphere. Transfected cells were then detached with Trypsin-EDTA, washed in PBS and resuspended in medium to a density of 1.67×10^5 cells/mL. Thirty microliters of cells were then dispensed into each well in 384-well plates, where 10 μL of compound in 4% DMSO was already present. Following 6 hours incubation at 37° C., 5% CO2, the luciferase activity was determined by adding 15 μl of Steady Lite Plus substrate (Perkin Elmer) to each well and readout performed on a ViewLux ultraHTS microplate imager (Perkin Elmer). Dose response curves were generated from measurements performed in quadruplicates. Lowest effective concentrations (LEC) values, defined as the concentration that induces an effect which is at least two fold above the standard deviation of the assay, were determined for each compound.

[1] = HEK293 NFκB-luc reporter, 6 hours incubation

SMILES	TLR7-wt (LEC) (human TLR7; [1])	TLR8-wt (LEC) (human TLR8)	TLR7-wt_LEC (human TLR7; HEK293 NFκB-luc reporter, 6 hours incubation, lowest effective concentration)	TLR8-wt_LEC (human TLR8)	TLR7-wt_LEC (human TLR7; Assay run at 48 hours)
CCC[C@@H](CO)Nc1nc(N)nc2cc(C)ccc12 [Compound 44]	0.43	0.03			
CCCC[C@@H](CCO)Nc1nc(N)nc2cccc(C)c12 [Compound 75]	0.14	0.06			
CCC[C@@H](CO)Nc1nc(N)nc2cc(CO)ccc12 [Compound 33]	1.88	0.15			
CCCCNc1nc(N)nc2cccc(OC)c12 [Compound 9]	0.41	0.13			
CCC[C@@H](CO)Nc1nc(N)nc2cc(F)c(F)cc12 [Compound 72]	2.59	0.02			
CCCC[C@@H](CCO)Nc1nc(N)nc2cc(C)ccc12 [Compound 73]	0.03	0.06			
CCC[C@@H](CO)Nc1nc(N)nc2cccc(F)c12 [Compound 50]	0.32	0.00			
CCCCNc1nc(N)nc2cccc(OC(C)C)c12 [Compound 31]	0.09	0.24			
CCCC[C@@H](CCO)Nc1nc(N)nc2ccc(F)cc12 [Compound 83]	1.59	0.42			
CCC[C@@H](CCO)Nc1nc(N)nc2ccc(C(C)C)cc12 [Compound 26]	3.60	1.97			
CCCC[C@@H](CO)Nc1nc(N)nc2cccc(C)c12 [Compound 52]	0.41	0.03			
CCC[C@@H](CCO)Nc1nc(N)nc2cc(C)ccc12 [Compound 53]	0.06	0.05			
CCC[C@@H](CCO)Nc1nc(N)nc2c(F)cccc12 [Compound 63]	0.29	0.15			
CCCCNc1nc(N)nc2ccc(OC)cc12 [Compound 40]	5.64	1.83			
CCC[C@@H](CO)Nc1nc(N)nc2cc(OC)ccc12 [Compound 56]	0.39	0.04			
CCCCNc1nc(N)nc2cccc(CCc3ccccc3)c12 [Compound 32]	0.13	0.47			
CCC[C@@H](CCO)Nc1nc(N)nc2ccc(CC)cc12 [Compound 25]	0.57	0.45			
CCCC[C@@H](CO)Nc1nc(N)nc2ccc(C)cc12 [Compound 51]	0.60	0.04			
CCC[C@@H](CO)Nc1nc(N)nc2cccc(C)c12 [Compound 46]	0.77	0.04			

SMILES	TLR7-wt (LEC) (human TLR7; [1])	TLR8-wt (LEC) (human TLR8)	TLR7-wt_LEC (human TLR7; HEK293 NFκB-luc reporter, 6 hours incubation, lowest effective concentration)	TLR8-wt_LEC (human TLR8)	TLR7-wt_LEC (human TLR7; Assay run at 48 hours)
CCC[C@@H](CCO)Nc1nc(N)nc2ccc(Oc3ccc(C(F)(F)F)cc3)cc12 [Compound 29]	11.13	>25			
CC[C@H](C)[C@@H](CO)Nc1nc(N)nc2ccc(F)cc12 [Compound 68]	4.57	0.33			
CCC[C@@H](CCO)Nc1nc(N)nc2ccc(OC)cc12 [Compound 79]	11.87	2.97			
CCC[C@@H](CO)Nc1nc(N)nc2c(C)cccc12 [Compound 43]	4.54	0.12			
CCC[C@@H](CO)Nc1nc(N)nc2cc(C(=O)OC)ccc12 [Compound 86]	2.01	0.22			
CCCCNc1nc(N)nc2cc(OC)c(OC)cc12 [Compound 1]			5.0	1.1	
CCC[C@@H](CCO)Nc1nc(N)nc2ccc(Oc3ccc(C(F)(F)F)cc3Cl)cc12 [Compound 27]	12.95	>25			
CCC[C@@H](CO)Nc1nc(N)nc2ccc(C)cc12 [Compound 45]	0.41	0.03			
CCCC[C@@H](CO)Nc1nc(N)nc2ccc(OC)cc12 [Compound 77]	3.48	0.62			
CCC[C@@H](CCO)Nc1nc(N)nc2ccc(F)cc12 [Compound 65]	0.94	0.44			
CCCCNc1nc(N)nc2cc(OC)c(OCc3ccccc3)cc12 [Compound 89]	1.84	2.22			
CCCCNc1nc(N)nc2ccc(CO)cc12 [Compound 24]	0.93	0.22			
CCC[C@@H](CO)Nc1nc(N)nc2ccc(CO)cc12 [Compound 34]	10.77	0.27			
CCCC[C@@H](CO)Nc1nc(N)nc2ccc(F)cc12 [Compound 61]	0.57	0.05			
CCCC[C@@H](CCO)Nc1nc(N)nc2ccc(OC)cc12 [Compound 88]	1.85	2.81			
CCC[C@@H](CO)Nc1nc(N)nc2cc(F)ccc12 [Compound 48]	0.54	0.01			
CCCC[C@@H](CCO)Nc1nc(N)nc2cc(OC)c(OC)cc12 [Compound 3]				5.5	4.0 *
CCCCCNc1nc(N)nc2ccc(Br)cc12 [Compound 13]	0.76	0.30			
CCCCNc1nc(N)nc2ccc(F)cc12 [Compound 38]	0.29	0.10			
